Test results reported in patent US20090156648A1, “Preparations containing pyridoxine and alpha-hydroxyisocaproic acid (HICA)” (IOVATE T. & P. INC., priority 2007, published 2009).

Experiment: hygroscopicity and storage stability of the salt as described
Format: physicochemical
Details: crystalline powder

With pyridoxine α-hydroxyisocaproate the hygroscopic nature was “non-hygroscopic” and the stability in storage was “stable in storage”.
